Test results as given in the supplement of paper PMC10307832.

How the values were obtained:
Assay in all cases: relative viability (nuclei count vs DMSO), 5 days (fraction); higher = more cells survive
[1] = compound: CNC(=O)c1ccccc1Sc1ccc2c(/C=C/c3ccccn3)n[nH]c2c1 [Axitinib] + CC(=O)c1c(C)c2cnc(Nc3ccc(N4CCNCC4)cn3)nc2n(C2CCCC2)c1=O [Palbociclib] (partner 0.5 µM)
Outline: (§1)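 Dosing by pin tool came one day after lung cancer cell lines were seeded in 1536-well plates, using either one drug or a fixed anchor-drug dose plus five library-drug doses (not always all listed) in √10 steps. After 5 days, nuclei were counted on 4× images. Relative viability is treated-well nuclei count divided by vehicle-well nuclei count, and values are medians of duplicate plates.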

[2] = compound: CC1=CC=C(C=C1)C(=O)CN2C3=C(CCCC3)SC2=N [Pifithrin_alpha] + NC(=O)Nc1cc(-c2cccc(F)c2)sc1C(=O)N[C@H]1CCCNC1 [AZD7762] (partner 0.2 µM)
Outline: as §1

[3] = compound: Nc1nc(Nc2ccc3c(c2)CC[C@@H](N2CCCC2)CC3)nn1-c1cc2c(nn1)-c1ccccc1CCC2 [Bemcentinib] + CC(=O)c1c(C)c2cnc(Nc3ccc(N4CCNCC4)cn3)nc2n(C2CCCC2)c1=O [Palbociclib] (partner 0.5 µM)
Outline: as §1

[4] = compound: CNC(=O)c1ccccc1Sc1ccc2c(/C=C/c3ccccn3)n[nH]c2c1 [Axitinib] + C[C@]1(O)C[C@@H](c2nc(-c3ccc4ccc(-c5ccccc5)nc4c3)c3c(N)nccn32)C1 [Linsitinib] (partner 1 µM)
Outline: as §1

What does the source list for 201T?
relative viability ([1]; first compound 0.005 µM): 0.376; relative viability ([1]; first compound 0.01581 µM): 0.361; relative viability ([1]; first compound 0.05 µM): 0.335; relative viability ([1]; first compound 0.1581 µM): 0.351; relative viability ([1]; first compound 0.5 µM): 0.343; relative viability ([2]; first compound 1 µM): 0.669; relative viability ([2]; first compound 3.162 µM): 0.773; relative viability ([2]; first compound 10 µM): 0.781; relative viability ([2]; first compound 31.62 µM): 0.461; relative viability ([2]; first compound 100 µM): 0.627; relative viability ([3]; first compound 0.04 µM): 0.333; relative viability ([3]; first compound 0.1265 µM): 0.314; relative viability ([3]; first compound 0.4 µM): 0.392; relative viability ([3]; first compound 1.265 µM): 0.363; relative viability ([3]; first compound 4 µM): 0.389; relative viability ([4]; first compound 0.005 µM): 1.08; relative viability ([4]; first compound 0.01581 µM): 1; relative viability ([4]; first compound 0.05 µM): 1.02; relative viability ([4]; first compound 0.1581 µM): 0.965; relative viability ([4]; first compound 0.5 µM): 0.966

How did the relative viability ([4]; first compound 0.005 µM) turn out when A549 was run?
The relative viability was 0.606.

What about the relative viability ([4]; first compound 0.01581 µM) of the same cell line?
Its relative viability is 0.606.

And the relative viability ([4]; first compound 0.05 µM)?
The relative viability was 0.595.

What about the relative viability ([4]; first compound 0.1581 µM) of the same cell line?
The relative viability was 0.529.

And the relative viability ([4]; first compound 0.5 µM)?
Its relative viability is 0.573.

Which results are given for A-427?
relative viability ([1]; first compound 0.005 µM): 0.491; relative viability ([1]; first compound 0.01581 µM): 0.511; relative viability ([1]; first compound 0.05 µM): 0.564; relative viability ([1]; first compound 0.1581 µM): 0.567; relative viability ([1]; first compound 0.5 µM): 0.543; relative viability ([2]; first compound 1 µM): 0.692; relative viability ([2]; first compound 3.162 µM): 0.675; relative viability ([2]; first compound 10 µM): 0.666; relative viability ([2]; first compound 31.62 µM): 0.644; relative viability ([2]; first compound 100 µM): 0.672; relative viability ([3]; first compound 0.04 µM): 0.55; relative viability ([3]; first compound 0.1265 µM): 0.515; relative viability ([3]; first compound 0.4 µM): 0.534; relative viability ([3]; first compound 1.265 µM): 0.532; relative viability ([3]; first compound 4 µM): 0.532; relative viability ([4]; first compound 0.005 µM): 1.14; relative viability ([4]; first compound 0.01581 µM): 1.02; relative viability ([4]; first compound 0.05 µM): 1.11; relative viability ([4]; first compound 0.1581 µM): 1.16; relative viability ([4]; first compound 0.5 µM): 1.17

ABC-1 was tested. Which relative viability ([1]; first compound 0.005 µM) did it give?
The relative viability was 0.756.

What about the relative viability ([1]; first compound 0.05 µM) of the same cell line?
Its relative viability is 0.632.

What about the relative viability ([1]; first compound 0.1581 µM) of the same cell line?
Its relative viability is 0.626.

And the relative viability ([1]; first compound 0.5 µM)?
The relative viability was 0.854.

What about the relative viability ([2]; first compound 3.162 µM) of the same cell line?
Its relative viability is 0.977.

What about the relative viability ([2]; first compound 10 µM) of the same cell line?
The relative viability was 0.8.

And the relative viability ([2]; first compound 31.62 µM)?
Its relative viability is 0.726.

What about the relative viability ([2]; first compound 100 µM) of the same cell line?
The relative viability was 0.679.

What about the relative viability ([3]; first compound 0.04 µM) of the same cell line?
Its relative viability is 0.532.

What about the relative viability ([3]; first compound 0.1265 µM) of the same cell line?
The relative viability was 0.825.

What about the relative viability ([3]; first compound 0.4 µM) of the same cell line?
Its relative viability is 0.654.

And the relative viability ([3]; first compound 1.265 µM)?
Its relative viability is 0.655.

What about the relative viability ([3]; first compound 4 µM) of the same cell line?
Its relative viability is 0.639.

What about the relative viability ([4]; first compound 0.005 µM) of the same cell line?
The relative viability was 0.972.

And the relative viability ([4]; first compound 0.01581 µM)?
Its relative viability is 0.947.

And the relative viability ([4]; first compound 0.05 µM)?
The relative viability was 0.745.

What about the relative viability ([4]; first compound 0.1581 µM) of the same cell line?
The relative viability was 0.759.

And the relative viability ([4]; first compound 0.5 µM)?
The relative viability was 1.22.

How did the relative viability ([1]; first compound 0.005 µM) turn out when BEN was run?
The relative viability was 0.474.

What about the relative viability ([1]; first compound 0.01581 µM) of the same cell line?
The relative viability was 0.433.

And the relative viability ([1]; first compound 0.05 µM)?
The relative viability was 0.459.

What about the relative viability ([1]; first compound 0.1581 µM) of the same cell line?
Its relative viability is 0.518.

What about the relative viability ([1]; first compound 0.5 µM) of the same cell line?
The relative viability was 0.515.

And the relative viability ([2]; first compound 1 µM)?
The relative viability was 0.608.

And the relative viability ([2]; first compound 3.162 µM)?
The relative viability was 0.753.

What about the relative viability ([2]; first compound 10 µM) of the same cell line?
Its relative viability is 0.722.

And the relative viability ([2]; first compound 31.62 µM)?
The relative viability was 0.533.

What about the relative viability ([2]; first compound 100 µM) of the same cell line?
Its relative viability is 0.656.

And the relative viability ([3]; first compound 0.04 µM)?
The relative viability was 0.488.

And the relative viability ([3]; first compound 0.1265 µM)?
Its relative viability is 0.498.

And the relative viability ([3]; first compound 0.4 µM)?
Its relative viability is 0.464.

What about the relative viability ([3]; first compound 1.265 µM) of the same cell line?
The relative viability was 0.432.

What about the relative viability ([3]; first compound 4 µM) of the same cell line?
Its relative viability is 0.514.

What about the relative viability ([4]; first compound 0.005 µM) of the same cell line?
The relative viability was 1.04.

What about the relative viability ([4]; first compound 0.01581 µM) of the same cell line?
Its relative viability is 1.01.

And the relative viability ([4]; first compound 0.05 µM)?
The relative viability was 0.689.

And the relative viability ([4]; first compound 0.1581 µM)?
Its relative viability is 0.803.

And the relative viability ([4]; first compound 0.5 µM)?
The relative viability was 0.928.

Which relative viability ([1]; first compound 0.005 µM) does the source give for CAL-12T here?
Its relative viability is 0.586.

And the relative viability ([1]; first compound 0.01581 µM)?
Its relative viability is 0.508.

What about the relative viability ([1]; first compound 0.05 µM) of the same cell line?
The relative viability was 0.41.

What about the relative viability ([1]; first compound 0.1581 µM) of the same cell line?
Its relative viability is 0.525.

And the relative viability ([1]; first compound 0.5 µM)?
The relative viability was 0.522.

What about the relative viability ([2]; first compound 1 µM) of the same cell line?
The relative viability was 0.548.

And the relative viability ([2]; first compound 3.162 µM)?
The relative viability was 0.658.

And the relative viability ([2]; first compound 10 µM)?
Its relative viability is 0.62.

What about the relative viability ([2]; first compound 31.62 µM) of the same cell line?
The relative viability was 0.401.

And the relative viability ([2]; first compound 100 µM)?
The relative viability was 0.476.

What about the relative viability ([3]; first compound 0.04 µM) of the same cell line?
Its relative viability is 0.3.

And the relative viability ([3]; first compound 0.1265 µM)?
The relative viability was 0.59.

And the relative viability ([3]; first compound 0.4 µM)?
Its relative viability is 0.47.

And the relative viability ([3]; first compound 1.265 µM)?
The relative viability was 0.489.

What about the relative viability ([3]; first compound 4 µM) of the same cell line?
Its relative viability is 0.45.

And the relative viability ([4]; first compound 0.005 µM)?
The relative viability was 0.873.

And the relative viability ([4]; first compound 0.01581 µM)?
The relative viability was 0.903.

What about the relative viability ([4]; first compound 0.05 µM) of the same cell line?
Its relative viability is 0.748.

What about the relative viability ([4]; first compound 0.1581 µM) of the same cell line?
Its relative viability is 0.911.

What about the relative viability ([4]; first compound 0.5 µM) of the same cell line?
The relative viability was 0.712.

Which results are given for COR-L23?
relative viability ([1]; first compound 0.005 µM): 0.322; relative viability ([1]; first compound 0.01581 µM): 0.297; relative viability ([1]; first compound 0.05 µM): 0.323; relative viability ([1]; first compound 0.1581 µM): 0.303; relative viability ([1]; first compound 0.5 µM): 0.331; relative viability ([3]; first compound 0.04 µM): 0.304; relative viability ([3]; first compound 0.1265 µM): 0.316; relative viability ([3]; first compound 0.4 µM): 0.275; relative viability ([3]; first compound 1.265 µM): 0.382; relative viability ([3]; first compound 4 µM): 0.31; relative viability ([4]; first compound 0.005 µM): 0.899; relative viability ([4]; first compound 0.01581 µM): 0.944; relative viability ([4]; first compound 0.05 µM): 1.01; relative viability ([4]; first compound 0.1581 µM): 0.968; relative viability ([4]; first compound 0.5 µM): 1.11

Which relative viability ([1]; first compound 0.005 µM) does the source give for COR-L 105 here?
Its relative viability is 0.456.

What about the relative viability ([1]; first compound 0.01581 µM) of the same cell line?
Its relative viability is 0.434.

What about the relative viability ([1]; first compound 0.05 µM) of the same cell line?
The relative viability was 0.38.

What about the relative viability ([1]; first compound 0.1581 µM) of the same cell line?
The relative viability was 0.438.

And the relative viability ([1]; first compound 0.5 µM)?
Its relative viability is 0.37.

What about the relative viability ([3]; first compound 0.04 µM) of the same cell line?
The relative viability was 0.385.

And the relative viability ([3]; first compound 0.1265 µM)?
The relative viability was 0.381.

What about the relative viability ([3]; first compound 0.4 µM) of the same cell line?
Its relative viability is 0.412.

What about the relative viability ([3]; first compound 1.265 µM) of the same cell line?
Its relative viability is 0.377.

What about the relative viability ([3]; first compound 4 µM) of the same cell line?
Its relative viability is 0.396.

And the relative viability ([4]; first compound 0.005 µM)?
The relative viability was 1.04.

And the relative viability ([4]; first compound 0.01581 µM)?
Its relative viability is 0.792.

What about the relative viability ([4]; first compound 0.05 µM) of the same cell line?
The relative viability was 0.97.

What about the relative viability ([4]; first compound 0.1581 µM) of the same cell line?
The relative viability was 1.21.

What about the relative viability ([4]; first compound 0.5 µM) of the same cell line?
The relative viability was 1.13.
